Experimental data published in ChEMBL document CHEMBL4400517, “Marine natural products as potential anti-tubercular agents” (Eur J Med Chem, 2019).
pIC50: −log10 of the molar value. Values after ≈ are worked out from the molar mass of the structure shown.

biological target: T1, Phosphotyrosine protein phosphatase (Mycobacterium tuberculosis) (UniProt A0A045ISB3); experiment: Inhibition of Mycobacterium tuberculosis Protein Tyrosine Phosphatase B at 100 uM relative to control; details: not given
T1 sequence (whole entry): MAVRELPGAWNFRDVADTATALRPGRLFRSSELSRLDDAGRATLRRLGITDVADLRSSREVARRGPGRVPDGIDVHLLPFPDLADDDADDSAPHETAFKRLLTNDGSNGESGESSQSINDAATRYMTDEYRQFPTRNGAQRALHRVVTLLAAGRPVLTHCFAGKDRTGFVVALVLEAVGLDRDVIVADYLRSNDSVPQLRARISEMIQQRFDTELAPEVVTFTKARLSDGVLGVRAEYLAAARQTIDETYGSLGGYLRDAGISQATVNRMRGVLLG

SMILES | inhibition [%]
COC1=CC(=O)c2c(O)c3c(c(O)c2C1=O)C[C@]1(C)OC(=O)O[C@@H]1[C@H]3O | 17.5 to 48.8
CNC1=CC(=O)c2c(O)c3c(c(O)c2C1=O)C[C@](C)(O)[C@H](O)[C@H]3O | 17.5 to 48.8
COC1=CC(=O)c2c(O)c3c(c(O)c2C1=O)C[C@](C)(O)[C@H](O)[C@H]3O | 37
COC1=CC(=O)c2c(O)c3c(c(O)c2C1=O)C[C@]1(C)OC(C)(C)O[C@@H]1[C@H]3O | 17.5 to 48.8
COC1=CC(=O)c2c(cc3c(c2O)C[C@@H](O)[C@@](C)(O)C3)C1=O | 17.5 to 48.8
COC1=CC(=O)c2c(O)c3c(c(O)c2C1=O)C[C@]1(C)OC(C=C(C)C)O[C@@H]1[C@H]3O (stereo partly specified) | 17.5 to 48.8
CNC1=CC(=O)c2c(O)c3c(c(O)c2C1=O)C[C@](C)(O)[C@H](O)C3 | 9.7
CCCCCCSC1=C(SCCCCCC)C(=O)c2c(O)c3c(c(O)c2C1=O)C[C@](C)(O)[C@H](O)[C@H]3O | 56.2
CCCNC1=CC(=O)c2c(O)c3c(c(O)c2C1=O)C[C@](C)(O)[C@H](O)[C@H]3O | 17.5 to 48.8
COC1=CC(=O)c2c(O)c3c(c(O)c2C1=O)C[C@]1(C)OCO[C@@H]1[C@H]3O | 17.5 to 48.8
COc1cc(O)c2c(c1O)C(=O)c1cc(C)ccc1C2=O | 17.5 to 48.8
COc1cc(O)c2c(c1O)C(=O)C1=C(C[C@@H](O)[C@@](C)(O)C1)C2=O | 17.5 to 48.8

system: Mycobacterium tuberculosis; experiment: Antimycobacterial activity against Mycobacterium tuberculosis H37Rv assessed as inhibition of mycobacterial growth at 12.5 ug/ml relative to control; type: functional; details: not given

SMILES | inhibition at 12.5 µg/mL [%]
CC(C)=CCC[C@H](C)[C@H]1CC[C@@H](C)c2c1ccc1ncoc21 | 66
CC1(C)CCC[C@]2(C)[C@H]3[C@H](C#N)c4cc(O)c(O)cc4O[C@@]3(C)CC[C@@H]12 | 96
CC1(C)CCC[C@]2(C)[C@H]3C(C#N)=C4C=C(O)C(=O)C=C4O[C@@]3(C)CC[C@@H]12 | 90
CC(C)=C[C@@H]1C[C@H](C)[C@H]2CC[C@H](C)c3c2c1c(C)c1ncoc31 [PSEUDOPTEROXAZOLE] | 97
CC1(C)CCC[C@]2(C)[C@H]3C=C4C=C(O)C(=O)C=C4O[C@@]3(C)CC[C@@H]12 [PUUPEHENONE] | 99

system: Mycobacterium tuberculosis; experiment: Antimycobacterial activity against Mycobacterium tuberculosis; type: functional; details: not given

SMILES | MIC [µM]
CSC1=CC2=C(C(=O)c3ccc([C@H]4C[C@@H](O)[C@H](O[C@H]5CC[C@H](O[C@H]6C[C@@H](O)[C@H](O)[C@@H](C)O6)[C@H](C)O5)[C@@H](C)O4)c(O)c3C2=O)[C@@]2(O[C@H]3CC[C@H](O)[C@H](C)O3)C(=O)C[C@](C)(O)C[C@@]12O | 14 (≈ 12.5 µg/mL)
CSC1=CC2=C(C(=O)c3ccc([C@H]4C[C@@H](O)[C@H](O)[C@@H](C)O4)c(O)c3C2=O)[C@@]2(O)C(=O)C=C(C)C[C@@]12O | 24.3 (≈ 12.5 µg/mL)
CSC1=CC2=C(C(=O)c3ccc([C@H]4C[C@@H](O)[C@H](O)[C@@H](C)O4)c(O)c3C2=O)[C@@]2(O)C(=O)C[C@](C)(O)C[C@@]12O | 5.88 (≈ 3.13 µg/mL)
Cc1cc(O)c2c3c(ccc2c1)C(=O)c1c(ccc([C@H]2C[C@@H](O)[C@H](O)[C@@H](C)O2)c1O)C3=O | 14.4 (≈ 6.26 µg/mL)
COC1=C(Br)C(O)[C@@]2(C=C1Br)CC(C(=O)NCCCCNC(=O)C1=NO[C@]3(C=C(Br)C(OC)=C(Br)C3O)C1)=NO2 (stereo partly specified) | 7.99 (≈ 6.54 µg/mL)
COC(=O)c1c(C)cc2c(c1O)[C@@]1(O)C(=O)c3cc4c(c(O)c3C(=O)[C@@]1(OC)CC2)C(=O)C=C(N[C@H]1O[C@@H](C)[C@H](O)[C@@H](O)[C@H]1OC)C4=O | 1.5 (≈ 1 µg/mL)

system: Mycolicibacterium phlei; experiment: Antimycobacterial activity against Mycobacterium phlei assessed as diameter of inhibition zone at 20 ug/disc; type: functional; details: read-out: IZ

SMILES | zone of inhibition at 20 µg/disc [mm]
Cc1cc(O)c2c3c(c(O)c4c(c13)O[C@@H](C)[C@]4(C)CO)C(=O)OC2=O | 20
CC(C)=CCOc1cc(O)c2c3c(c(O)cc(C)c13)C(=O)OC2=O | 16
CC(C)=CCOc1cc(O)c2c3c(c(O)cc(C)c13)OC2=O | 22

system: Mycolicibacterium vaccae; experiment: Antimycobacterial activity against Mycobacterium vaccae assessed as diameter of inhibition zone at 50 ug/disc; type: functional; details: read-out: IZ

SMILES | zone of inhibition at 50 µg/disc [mm]
CC[C@H]1/C=C/[C@H](O)[C@H](C=C(C)C)OC(=O)[C@@]2(C)C=CC(=O)Nc3c2c(O)c2c(c(O)c(C)cc2c3O)C(=O)CC1 | 11
CC[C@H]1/C=C/[C@@H]([C@@H](O)C=C(C)C)OC(=O)/C(C)=C\[C@@H]2C(=O)NC3=CC(=O)c4c(cc(C)c(O)c4C(=O)CC1)[C@@]32O | 12
CC[C@H]1/C=C/[C@H](O)[C@H](C=C(C)C)OC(=O)/C(C)=C/CC(=O)Nc2cc(O)cc3c2O/C(=C\C(=O)CC1)C(C)=C3 | 12
CC[C@H]1/C=C/[C@@H]([C@@H](O)C=C(C)C)OC(=O)/C(C)=C\CC(=O)Nc2cc(O)cc3c2O[C@@]2(CC1)CC(=O)[C@@H](C)[C@@H]3O2 | 19

system: Mycobacterium tuberculosis; experiment: Antimycobacterial activity against Mycobacterium tuberculosis H37Ra; type: functional; details: not given

SMILES | MIC [µM]
C1=C\CCCC[C@@H]2CN3CCCC/C=C\CCCC[C@H]4C[C@H](CN(CCCCCC/1)C4)[C@H]2CC3 (relative stereo) | 2.14 (≈ 1 µg/mL)
C1=C\CCCCN2C[C@H]3CCCC/C=C\CCCCN4CC[C@@H]([C@H](CCCCCC/1)C4)[C@H](C3)C2 (relative stereo) | 5.34 (≈ 2.5 µg/mL)

system: Mycobacterium tuberculosis; experiment: Antimycobacterial activity against Mycobacterium tuberculosis H37Rv; type: functional, organism-based; details: not given

SMILES | pIC50 | MIC [µM]
COC(=O)/C1=C/c2c([nH]c3ccccc23)/C(C(=O)OC)=C\c2c1[nH]c1ccccc21 [CAULERPIN] | 6.62 | 
C=C(CC[C@@H](C)[C@H]1CC[C@H]2[C@@H]3[C@@H](C=O)[C@]4(O)C[C@@H](O)CC[C@]4(C)[C@H]3CC[C@]12C)C(C)C |  | 26.1 (≈ 11.2 µg/mL)
O[C@]12C=C(c3nccc4c3[nH]c3ccccc34)[C@@H]3CCN(CCCC/C=C\CC1)C[C@@]31C[C@@H]3/C=C\CCCCN3[C@H]12 [MANZAMINE A] |  | 1.64 (≈ 0.9 µg/mL)
CC(=O)O[C@H]1C[C@@]2(C)[C@@H](CC[C@H]3[C@@]4(C)C=CC(=O)[C@@H](C)C4[C@H](OC(C)=O)C(=O)[C@@]32C)/C1=C(\CCC=C(C)C)C(=O)O (stereo partly specified) |  | 0.89 (≈ 0.506 µg/mL)
CC(=O)O[C@H]1C[C@H]2[C@]3(C)CC[C@H]4C(C)(C)CCC[C@]4(C)[C@H]3C[C@@H](O)[C@]2(C)[C@@H]2C1=CC[C@H]2OC(C)=O | 5.57 | 12.8 (≈ 6.23 µg/mL)
COC(=O)N[C@H]1[C@@H](C)O[C@@H](O[C@H]2C/C=C(\C)[C@@H]3C=C[C@@H]4[C@@H](O[C@@H]5C[C@@H](O[C@@H]6C[C@@H](O)[C@@H](O[C@H]7C[C@@H](C)[C@H](OC)[C@H](O)C7)[C@H](C)O6)[C@@H](O)[C@H](C)O5)[C@@H](C)C[C@H](C)[C@H]4[C@]3(C)C(=O)C3=C(O)[C@@]4(C[C@@H](C)C(COC(C)=O)=C[C@H]4/C=C/2C)OC3=O)C[C@]1(C)N |  | 26.7 (≈ 32 µg/mL)
O=C1CCCN2[C@@H](CC1)C[C@]13CN4CCCC/C=C\CC[C@](O)(C=C(c5nccc6c5[nH]c5ccc(O)cc56)[C@@H]1CC4)[C@H]23 |  | 52.1 (≈ 30.2 µg/mL)
O=C1CCCN2[C@@H](CC1)C[C@]13CN4CCCC/C=C\CC[C@](O)(C=C(c5nccc6c5[nH]c5c(O)cccc56)[C@@H]1CC4)[C@H]23 |  | 0.69 (≈ 0.401 µg/mL)
O=C1CCCN2[C@@H](CC1)C[C@]13CN4CCCC/C=C\CC[C@](O)(C=C(c5nccc6c5[nH]c5ccccc56)[C@@H]1CC4)[C@H]23 |  | 6.74 (≈ 3.81 µg/mL)
COC(=O)N[C@H]1[C@@H](C)O[C@@H](O[C@H]2C/C=C(\C)[C@@H]3C=C[C@@H]4[C@@H](O[C@@H]5C[C@@H](O[C@@H]6C[C@@H](O)[C@@H](O[C@H]7C[C@@H](C)[C@H](OC)[C@H](O)C7)[C@H](C)O6)[C@@H](O)[C@H](C)O5)[C@@H](C)C[C@H](C)[C@H]4[C@]3(C)C(=O)C3=C(O)[C@@]4(C[C@@H](C)C(CO)=C[C@H]4/C=C/2C)OC3=O)C[C@]1(C)N |  | 27.7 (≈ 32 µg/mL)
C=C(CC[C@@H](C)[C@H]1CC[C@H]2[C@@H]3CC=C4C[C@@H](O)CC[C@]4(C)[C@H]3CC[C@]12C)C(C)C |  | 302 (≈ 120 µg/mL)
C=C(CC[C@@H](C)[C@H]1CC[C@H]2[C@@H]3C(C=O)=C4C[C@@H](O)CC[C@]4(C)[C@H]3CC[C@]12C)C(C)C [PARGUESTEROL A] |  | 18.9 (≈ 7.81 µg/mL)
COC(=O)N[C@H]1[C@@H](C)O[C@@H](O[C@H]2C/C=C(\C)[C@@H]3C=C[C@@H]4[C@@H](O[C@@H]5C[C@@H](O[C@@H]6C[C@@H](O)[C@@H](O[C@H]7C[C@@H](C)[C@H](OC)[C@H](O)C7)[C@H](C)O6)[C@@H](O)[C@H](C)O5)[C@@H](C)C[C@H](C)[C@H]4[C@]3(C)C(=O)C3=C(O)[C@@]4(C[C@@H](C)C(CO)=C[C@H]4/C=C/2C)OC3=O)C[C@]1(C)[N+](=O)[O-] |  | 13.5 (≈ 16 µg/mL)
O=CC1=C[C@@]2(O)CC/C=C\CCCCN3CC[C@@H]1[C@]1(C[C@@H]4/C=C\CCCCN4[C@H]12)C3 [IRCINAL] |  | 73.7 (≈ 30.2 µg/mL)
CO[C@H]1/C=C/O[C@@]2(C)Oc3c(C)c(O)c4c(O)c(c(/C=N/N5CCN(C)CC5)c(O)c4c3C2=O)NC(=O)/C(C)=C\C=C\[C@H](C)[C@H](O)[C@@H](C)[C@@H](O)[C@@H](C)[C@H](OC(C)=O)[C@@H]1C [RIFAMPIN] | 6.26 | 

system: Mycolicibacterium smegmatis; experiment: Antibiofilm activity against Mycobacterium smegmatis after 5 weeks; type: functional; details: not given

SMILES | MIC [µM]
CC(C)=C/C=C\[C@H](C)[C@H]1CC[C@]2(C)C[C@@H]3C(C)=CC(=O)[C@H]3/C(C=O)=C\C[C@@H]12 | 17 (≈ 6.23 µg/mL)
CC(C)=C/C=C\[C@H](C)[C@H]1CC[C@]2(C)C[C@H]3[C@H](C(=O)C[C@@]3(C)O)/C(C=O)=C\C[C@@H]12 | 4.1 (≈ 1.58 µg/mL)
CC(C)=C/C=C\[C@H](C)[C@H]1CC[C@]2(C)C[C@H]3[C@@H](C(=O)C[C@@]3(C)O)/C(C=O)=C\C[C@@H]12 | 65 (≈ 25 µg/mL)
